According to US20260007716A1, “DESLORELIN FOR ATTENUATION OF ANIMAL URINE ODOR” (priority 2022, published 2026):

Legend:
[1] = system: dogs; conditions: cited from earlier work
[2] = system: molecules responsible of urine odor; assay: LC-MS/MS metabolomic analysis of urine of male cats after deslorelin implant (Examples 2 and 3); format: in vivo, cat
Description: A first study A was performed in 2 groups of a total number of 7 male healthy cats old from 12 to 13 months and weighting between 4 and 6 kg in: Control group: n=3, intact males, administered sodium chloride (saline) on day 0 (D0), Chemically treated group: n=4 one implant of Suprelorin® 4.7 mg on day 0 (D0). The study A was conducted for a period of 63 days after the implantation of Suprelorin® 4.7 mg. From […]-7, a clinical examination of the cats was performed (body weight, temperature) and samples of urine and feces were collected. At D0, the cats of the treated group were implanted subcutaneously with Suprelorin® 4.7 mg (Virbac, France). From D7 to […], a weekly clinical examination of the cats was performed (body weight, temperature) and samples urine and feces were collected. […] Thanks to this unusual technic, the metabolomics present in samples have been assessed. […] The workflow template was untargeted metabolomics with statistics to detect unknowns with ID using online Databases and mzLogic.ons obtained from positive and negative ionization mode using MZmine (Version 2.39) were also analyzed. […] Chromatograms were detected using the ADAP chromatogram builder (MS level: 1, Minimum group size in number of scans: 5, Group intensity threshold: 5×10^2, minimum highest intensity: 10^5, m/z tolerance: 10 ppm). […]

[3] = system: male cats; assay: Multi-site field, double-masked, placebo-controlled study of a single 4.7 mg deslorelin implant in male cats (Example 1); format: in vivo
Description: The aim of this multi-site field, double-masked, placebo-controlled, randomized study was to confirm that deslorelin implants can be used as a neutering option for male cats and can also reduce their associated tomcat sexual behaviours.
Privately owned indoor male cats [3 months-11 years of age] were allocated to two groups to be either implanted with one 4.7 mg deslorelin implant (Suprelorin® 4.7 mg, Virbac, France) or to receive sodium chloride. The implant and the saline solution were administered subcutaneously between the shoulder blades on day 0 (D0). Serum testosterone concentrations in ng/ml (T), sexual behaviors (presence of urine marking, frequency of vocalization, frequency of aggressiveness) and presence of intact male cat urine odour were assessed until month (M) 12 (D372). General safety assessments, bodyweight, appetite and adverse reactions were regularly followed.
The protocol received ethical approval. The Cochran-Mantel-Haenszel test stratified by center with the RIDIT transformation and the general association statistic were used for comparison between groups.
Among n=205 Male Cats, n=154 received Suprelorin® 4.7 mg (treated group) and n=51 received the saline solution as control group.

[4] = system: male cats; assay: Cat field studies 1 and 2: suppression of fertility, re-implantation and reversibility (Example 4); format: in vivo
Description: This example provides the data collected from 2 combined studies (Double-masked Placebo-Controlled randomized) that have been conducted sequentially according to the following schedule: • Study 1: The study 1 has been conducted on a group of 205 male cats divided into two groups, one Control Group that received 1 mL of saline solution (n=51-subcutaneous administration) and one Treated Group (n=154) that received an implant of Suprelorin® 4.7 mg (subcutaneous implant-deslorelin acetate). • Study 2: At the end of a first period of 12 months, the Suprelorin® implant was removed in all the male cats belonging to the Treated Group. 12 male cats of the Treated Group issued from study 1 were then administered saline solution (1 mL subcutaneously) (Saline Group) and 22 cats of the Treated Group issued from Study 1 were re-implanted with a new Suprelorin® 4.7 mg implant for a second period of time of 12 months (Treated twice Group). The efficacy and safety of the re-implantation was followed-up for these supplementary 12 months, i.e. for a total of 24 months.
The observation schedule was as follows: • Study 1: V1: Day −14 to −7; V2: Day 0; V3: 1.5 months±3 days; V4: 3 months±5 days, V5: 6 months±5 days, V6: 9 months±5 days; V7: 12 months±5 days; • Study 2: V8: 12 months±3 days; V9: 13.5 months±3 days; V10: 15 months±5 days; V11: 18 months±5 days; V12: 21 months±5 days; V13: 24 months±5 days.
Regarding the enrolment criteria, in both studies the criteria were as the following: • Domestic Cats • Age >3 MONTHS old or >15 MONTHS in Study 2 • Intact Indoor males • Client-owned (including shelter cats/rehomed by foster families)
With the additional criteria for study 2 of being a success in study 1.
In these studies the following primary endpoints were measured: • For Study 1: the suppression of fertility (Testosterone≤0.10 ng/ml*from V4 until V7*-3 to 12 months) • Study 2: the suppression of fertility (Testosterone≤0.10 ng/ml*from V8 until V13 (12 to 24 months) and the time to reversion effect.
In addition to the safety parameters (Haematology and blood biochemistry, Urinalysis, Local reactions at the implantation site, Change in Body weight, Appetite, Abnormal testicular evaluation, Adverse events), the following secondary endpoints have been reported as well: • Sexual behaviour sum score • Aggression • Vocalization • Urine marking • Urine Smell/odour • Penile Spines • Testicular volume

[5] = system: cat; assay: Safety study in cat and tolerance studies in male and female species; format: in vivo; conditions: safety study in cat, high dose
[6] = vs saline group, throughout the study

SMILES: CCNC(=O)[C@@H]1CCCN1C(=O)[C@H](CCCN=C(N)N)NC(=O)[C@H](CC(C)C)NC(=O)[C@@H](Cc1c[nH]c2ccccc12)NC(=O)[C@H](Cc1ccc(O)cc1)NC(=O)[C@H](CO)NC(=O)[C@H](Cc1c[nH]c2ccccc12)NC(=O)[C@H](Cc1cnc[nH]1)NC(=O)[C@@H]1CCC(=O)N1 [deslorelin]
- presence of deslorelin ([1]; dog, in vivo): 2.5 months
- duration of observed effect ([1]; dogs): at least 6 months
- levels of cadaverine, indole, paracresol, isovalthine and isobuteine ([2]; individually or together at least by two, summary of Example 3 data): down regulate
- p-coumaroylputrescine concentration in urine ([2]; male cat urine, as a function of time, chemically treated group vs control group): decrease
- flare in sexual behavior ([3]; one 4.7 mg implant): No flare in sexual behavior
- safety concerns ([3]; one 4.7 mg implant, up to M12): no safety concerns
- Sexual behavior scores [3, 6]: decreased significantly
- testicular volumes [3, 6]: decreased significantly
- urine odour [3, 6]: decreased significantly
- visibility of penile spines [3, 6]: decreased significantly
- duration of effective chemical castration [4]: at least 12 months
- reversibility of effect at the end of the treatment [4]: reversible
- sexual behaviors [4]: reduced
- onset of efficacy in behavioral reduction ([4]; approx.): 7 to 31 days
- safety concerns ([4]; single or repeated administration, up to 24 months): no safety concern
- adverse events [5]: neither serious adverse events nor live threatening events
